# Measured values taken from ChEMBL document CHEMBL4819052, “Structure-Based Approaches to Improving Selectivity through Utilizing Explicit Water Molecules: Discovery of Selective β-Secretase (BACE1) Inhibitors over BACE2” (J Med Chem, 2021).
# Assay: Dissociation constant, pKa of compound by capillary electrophoresis
# Type: physicochemical
row,SMILES,pKa
1,CC#C[C@@]1(c2cc(NC(=O)c3ccc(C#N)cn3)ccc2F)CCOC(N)=N1,8.3
2,CC#C[C@]1(c2cc(NC(=O)c3cnc(OCF)cn3)ccc2F)N=C(N)OCC12CC(F)(F)C2,7.5
3,CC#C[C@@]1(c2cc(NC(=O)c3cnc(OCF)cn3)ccc2F)CCOC(N)=N1,8.4
4,CC#C[C@]1(c2cc(NC(=O)c3cnc(OCF)cn3)ccc2F)N=C(N)OC[C@@H]1F,6.5
